Measured values from PMC11724075, “Small-molecule-induced ERBB4 activation to treat heart failure” (Nature Communications, 2025).
Where “and” joins values, the source holds several entries; their conditions need not be identical. Equal values may be shown once.

Assays:
ERBB4/ERBB4 = biological target: T1, ERBB4/ERBB4 (Homo sapiens, UniProt Q15303); assay: NRG1 dose-response in ERBB4/ERBB4 dimerization assay with co-administration of EF-1; assay type: cell-based
T1 construct: host or cells: U2OS (osteosarcoma cells), PathHunter engineered line
Method: U2OS ERBB4/ERBB4 dimerization cells were seeded at a density of 5 × 10^4 cells/well in 100 µL Cell Plating 0 Reagent, in white 96-well plates (PerkinElmer, 6005680) and incubated for 24 h at 37 °C, 5% CO2. […] Next, 110 µL PathHunter Flash Detection Reagent was added to each well and incubated at RT for 1 h after which the luminescence signal was measured using the Luminoskan Ascent (Thermo Fisher Scientific). Dose-response curves of the compounds were performed in 2-fold (0.0625–32 µM). The same experimental set-up was used for the U2OS ERBB2/ERBB4, U2OS ERBB2/ERBB3 and U2OS ERBB1/ERBB1 dimerization cell lines. […]
(b) DRC showing t he effect of NRG1 (full line with full circle) on the […]
1x10-6 M NRG1; n=5 biological replicates for NRG1 + EF -1 10 µM for all concentrations of NRG1, except […]
concentrations of NRG1, except n=2 for 3x10-7 M and 1x10-6 M NRG1). All data are presented as mean ± SD. Source data are provided as a Source Data file . CPD, compound; DRC; dose response curve; FC, fold change; F-NRG1, fluorescent ly labeled NRG1; M, molar concentration; NRG1, neuregulin-1; Veh, […]

[1] = system: Akt phosphorylation (pAkt/Akt); assay: Western blot pAkt/Akt in iAMs; assay type: cell-based, rat; conditions: for phosphorylation of Akt in iAMs (in words): NRG1 10 nM or EF-1 32 µM; for pAkt/Akt, relative to vehicle of the same time point: iAMs, single replicates
Method: (§1) Hearts of the aforementioned transgenic mice were removed immediately after the animals had been killed. Cells and heart tissue were collected in RIPA lysis buffer (Thermo Fisher Scientific, 89900) supplemented with protease inhibitors (Merck, 11836153001) and phosphatase inhibitors (Merck, 4906845001) and the lysates were centrifuged at 14,000 × g for 10 min. The supernatants were collected, supplemented with sample buffer, and incubated at 95 °C for 5 min. Protein quantification was done with Pierce^TM BCA Protein Assay Kits (Thermo Fisher, 23227) according to the manufacturer’s instructions. Equal protein amounts of clarified lysates (20 µg) were subsequently separated by sodium dodecyl sulfate (SDS) polyacrylamide gel electrophoresis (165 V, 400 mA, 60 min) and transferred onto polyvinylidene fluoride membranes by electroblotting (100 V, 400 mA, 90 min). Next, the membranes were incubated for 1 h with Li-Cor blocking buffer (Li-Cor, 927-60001) at RT in Tris-buffered saline (TBS), supplemented with 0.1% Tween (BIO-RAD, 1706531). Next, primary antibodies were added (see below and Table 1a) in Li-Cor blocking buffer supplemented with 0.1% Tween, and the membranes were incubated overnight at 4 °C on a shaker. Following washing with TBS-0.1% Tween, the membranes were incubated for 1 h at RT with corresponding IRDye-conjugated secondary antibodies (See below and Table 1b) in Li-Cor blocking buffer supplemented with […] and 0.1% Tween. The membrane was visualized with the Odessey imaging system.

[2] = system: ERK1/2 phosphorylation (pERK1/2/ERK1/2); assay: Western blot pERK1/2/ERK1/2 in iAMs; assay type: cell-based, rat; conditions: for phosphorylation of ERK1/2 in iAMs (in words): NRG1 10 nM or EF-1 32 µM; for pErk/Erk, relative to vehicle of the same time point: iAMs, single replicates
Method: as §1

[3] = system: mouse model of AngII-induced myocardial fibrosis; assay: AngII-induced myocardial fibrosis mouse model, 4 weeks, Masson's trichrome fibrosis, wild type mice; assay type: in vivo; parameters: key to Total fibrosis male in vivo WT with EF-1 / Total fibrosis female in vivo WT with EF-1 / Total fibrosis male in vivo WT with NA-1: fibrotic (blue-stained) area / total area
Method: Four weeks after implantation, cardiac ultrasound was performed, mice were euthanized, and hearts were collected. A similar set-up was used for the 1-week study (Alzet, model 1007D) in male mice (n = 9-10 mice in every group).
Hearts were fixed in 4% PFA, paraffin-embedded, and cut into 5-µm sections. Images were acquired with an Olympus BX43 microscope (Olympus Stream Motion Software) or a CELENA® S Digital Imaging System and analyzed with ImageJ 2.14.0 software. Collagen distribution was visualized by Masson’s trichrome staining. Cardiac total fibrosis was expressed as the ratio of positively stained fibrotic area (blue) to the total area and perivascular fibrosis as the ratio of fibrotic area to vascular lumen area. Scar size was determined by measuring the scar length over the […]. Hypertrophy and vascularisation were visualized via an isolectin-B4/WGA/DAPI staining. Quantification was performed by a person blinded to the treatment protocol.

[4] = female wild type mice, AngII/EF-1 group, individual animals
[5] = male wild type mice, AngII/EF-1 group, individual animals
[6] = male wild type mice, EF-1 group (no AngII), individual animals

T1 sequence (Q15303 26-1308): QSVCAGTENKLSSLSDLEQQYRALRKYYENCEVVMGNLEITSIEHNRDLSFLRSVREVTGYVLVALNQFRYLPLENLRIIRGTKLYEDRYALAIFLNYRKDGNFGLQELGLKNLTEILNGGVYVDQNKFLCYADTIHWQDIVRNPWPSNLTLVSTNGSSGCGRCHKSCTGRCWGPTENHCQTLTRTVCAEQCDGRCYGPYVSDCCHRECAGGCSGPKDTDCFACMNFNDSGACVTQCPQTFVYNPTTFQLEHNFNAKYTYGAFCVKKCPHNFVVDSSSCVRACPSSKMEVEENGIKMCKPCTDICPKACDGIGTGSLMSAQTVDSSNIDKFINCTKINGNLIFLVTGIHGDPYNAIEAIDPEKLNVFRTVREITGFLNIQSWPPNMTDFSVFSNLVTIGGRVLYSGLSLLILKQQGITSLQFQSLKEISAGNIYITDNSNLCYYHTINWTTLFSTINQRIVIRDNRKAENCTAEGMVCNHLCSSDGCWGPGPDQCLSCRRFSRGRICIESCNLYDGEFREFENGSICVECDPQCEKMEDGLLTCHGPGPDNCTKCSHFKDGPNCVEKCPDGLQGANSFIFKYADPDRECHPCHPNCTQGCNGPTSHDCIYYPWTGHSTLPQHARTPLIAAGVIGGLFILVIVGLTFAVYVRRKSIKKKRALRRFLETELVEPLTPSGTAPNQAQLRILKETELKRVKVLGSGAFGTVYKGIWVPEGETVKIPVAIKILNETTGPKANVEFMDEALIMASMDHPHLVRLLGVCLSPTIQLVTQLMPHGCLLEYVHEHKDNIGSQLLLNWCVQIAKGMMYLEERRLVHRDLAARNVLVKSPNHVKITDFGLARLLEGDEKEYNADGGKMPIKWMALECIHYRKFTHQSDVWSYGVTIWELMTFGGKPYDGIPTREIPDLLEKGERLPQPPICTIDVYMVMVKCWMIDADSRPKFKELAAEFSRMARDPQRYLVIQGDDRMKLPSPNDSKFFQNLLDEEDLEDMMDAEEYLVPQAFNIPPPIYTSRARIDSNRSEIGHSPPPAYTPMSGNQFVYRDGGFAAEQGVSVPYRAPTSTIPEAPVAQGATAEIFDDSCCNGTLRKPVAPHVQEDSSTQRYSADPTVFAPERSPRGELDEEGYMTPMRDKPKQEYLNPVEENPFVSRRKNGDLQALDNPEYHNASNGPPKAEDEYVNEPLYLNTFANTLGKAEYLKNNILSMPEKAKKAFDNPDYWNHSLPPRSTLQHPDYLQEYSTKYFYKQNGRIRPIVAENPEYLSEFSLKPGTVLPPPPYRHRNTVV
T1 sequence (Q15303 26-1308): as above

In the case of neuregulin-1 [NRG1], the “Chemiluminescence-based competition assay with NRG1 and EF-1, signal” value (ERBB4/ERBB4; NRG1 1e-11 M, no EF-1) is reported as 0, the “Chemiluminescence-based competition assay with NRG1 and EF-1, signal” value (ERBB4/ERBB4; NRG1 1e-7 M, no EF-1) is reported as 101.055 and 98.9454 and 97.307 and 102.693 and 100 and 86.6131 and 109.42 and the “Chemiluminescence-based competition assay with NRG1 and EF-1, signal” value (ERBB4/ERBB4; NRG1 3e-7 M, no EF-1) is reported as 95.7195 and 99.6882 and 104.291 and 93.5081 and 90.5392 and 120.599 and 107.787. The “Chemiluminescence-based competition assay with NRG1 and EF-1, signal” value (ERBB4/ERBB4; NRG1 1e-6 M, no EF-1) was 99.5216 and 99.741 and 109.693 and 98.1524, the “phosphorylation of Akt in iAMs (in words)” value [1] was “significant increase in phosphorylated Akt levels after already 15 minutes” and the “pAkt/Akt, relative to vehicle of the same time point” value (“pAkt/Akt, relative to vehicle” below) ([1]; NRG1 10 nM, 0 minutes) was 1.052 and 0.8332 and 0.8199. The “pAkt/Akt, relative to vehicle” value ([1]; NRG1 10 nM, 15 minutes) was 5.096 and 6.809 and 6.931, the “pAkt/Akt, relative to vehicle” value ([1]; NRG1 10 nM, 60 minutes) was 4.363 and 4.094 and 3.405 and the “pAkt/Akt, relative to vehicle” value ([1]; NRG1 10 nM, 120 minutes) was 2.7652 and 3.7648 and 2.637. The “pAkt/Akt, relative to vehicle” value ([1]; NRG1 10 nM, 240 minutes) was 2.317 and 2.06, the “phosphorylation of ERK1/2 in iAMs (in words)” value [2] was “time-dependent phosphorylation of ERK1/2” and the “pErk/Erk, relative to vehicle of the same time point” value (shortened to “pErk/Erk, relative to vehicle”) ([2]; NRG1 10 nM, 0 minutes) was 0.7394 and 1.087 and 0.6444. The “pErk/Erk, relative to vehicle” value ([2]; NRG1 10 nM, 15 minutes) was 2.343 and 1.9112 and 1.767, the “pErk/Erk, relative to vehicle” value ([2]; NRG1 10 nM, 60 minutes) was 3.329 and 2.139 and 1.769 and the “pErk/Erk, relative to vehicle” value ([2]; NRG1 10 nM, 120 minutes) was 1.461 and 2.784 and 4.448. The “pErk/Erk, relative to vehicle” value ([2]; NRG1 10 nM, 240 minutes) was 3.3773 and 3.181.
In the case of `O=C(NC1CC1)C(Sc1nc2ccccc2c(=O)n1C1CCCC1)c1ccccc1` (stereo not drawn) [EF-1], the “Chemiluminescence-based competition assay with NRG1 and EF-1, signal” value (ERBB4/ERBB4; EF-1 1 µM, NRG1 1e-11 M) is reported as 0, the “Chemiluminescence-based competition assay with NRG1 and EF-1, signal” value (ERBB4/ERBB4; EF-1 1 µM, NRG1 3e-7 M) is reported as 96.5132 and 159.12 and 135.867 and 151.14 and the “Chemiluminescence-based competition assay with NRG1 and EF-1, signal” value (ERBB4/ERBB4; EF-1 1 µM, NRG1 1e-6 M) is reported as 151.834 and 150.068 and 166.317. For the same compound, the “Chemiluminescence-based competition assay with NRG1 and EF-1, signal” value (ERBB4/ERBB4; EF-1 10 µM, NRG1 1e-11 M) was 0, the “Chemiluminescence-based competition assay with NRG1 and EF-1, signal” value (ERBB4/ERBB4; EF-1 10 µM, NRG1 3e-7 M) was 204.858 and 319.881 and 318.093 and 238.507 and the “Chemiluminescence-based competition assay with NRG1 and EF-1, signal” value (ERBB4/ERBB4; EF-1 10 µM, NRG1 1e-6 M) was 299.545. The “potentiation of NRG1-induced ERBB4 homodimerization” value (ERBB4/ERBB4; EF-1 32 µM) was 299.5%, the “Chemiluminescence-based competition assay with NRG1 and EF-1, signal” value (ERBB4/ERBB4; EF-1 32 µM, NRG1 1e-11 M) was 0 and the “Chemiluminescence-based competition assay with NRG1 and EF-1, signal” value (ERBB4/ERBB4; EF-1 32 µM, NRG1 1e-7 M) was 179.706 and 213.306 and 260.377 and 233.656 and 250.186. For the same compound, the “Chemiluminescence-based competition assay with NRG1 and EF-1, signal” value (ERBB4/ERBB4; EF-1 32 µM, NRG1 3e-7 M) was 277.077 and 253.156, the “Chemiluminescence-based competition assay with NRG1 and EF-1, signal” value (ERBB4/ERBB4; EF-1 32 µM, NRG1 1e-6 M) was 257.842 and 279.551 and the “time of peak Akt phosphorylation” value ([1]; EF-1) was 2 h. The “pAkt/Akt, relative to vehicle” value ([1]; EF-1 32 µM, 0 minutes) was 0.748 and 0.7404 and 0.672 and 0.9718, the “pAkt/Akt, relative to vehicle” value ([1]; EF-1 32 µM, 15 minutes) was 0.8783 and 0.9705 and 0.9844 and 0.887 and the “pAkt/Akt, relative to vehicle” value ([1]; EF-1 32 µM, 60 minutes) was 1.284 and 1.335 and 1.4576 and 1.506. The “pAkt/Akt, relative to vehicle” value ([1]; EF-1 32 µM, 120 minutes) was 2.136 and 1.473 and 2.15 and 1.815, the “pAkt/Akt, relative to vehicle” value ([1]; EF-1 32 µM, 240 minutes) was 2.021 and 1.657 and 2.184 and 2.136 and the “phosphorylation of Akt in iAMs (in words)” value [1] was “time-dependent phosphorylation of Akt”. For the same compound, the “time of peak levels of ERK1/2 phosphorylation” value ([2]; EF-1) was 15 min, the “pErk/Erk, relative to vehicle” value ([2]; EF-1 32 µM, 0 minutes) was 1.078 and 1.057 and 1.137 and 0.8985 and the “pErk/Erk, relative to vehicle” value ([2]; EF-1 32 µM, 15 minutes) was 1.66 and 1.416 and 1.274 and 1.578. The “pErk/Erk, relative to vehicle” value ([2]; EF-1 32 µM, 60 minutes) was 1.162 and 1.018 and 1.18 and 0.9894, the “pErk/Erk, relative to vehicle” value ([2]; EF-1 32 µM, 120 minutes) was 0.9869 and 1.003 and 0.9414 and 0.8187 and the “pErk/Erk, relative to vehicle” value ([2]; EF-1 32 µM, 240 minutes) was 0.9968 and 1.428 and 1.0991 and 0.9249. The “phosphorylation of ERK1/2 in iAMs (in words)” value [2] was “transient phosphorylation of ERK1/2”, the “Perivascular fibrosis female in vivo WT with EF-1” value [3, 4] was 1.006 and 0.6567 and 0.4251 and 0.5106 and 0.5866 and 0.41 and 0.775 and 0.451 and the “Total fibrosis female in vivo WT with EF-1” value [3, 4] was 0.56 and 1.25 and 0.75 and 1.11 and 0.5 and 0.41 and 1.42 and 0.66. For the same compound, the “effect on AngII-induced interstitial and perivascular fibrosis (in words)” value ([3]; male and female wild type mice, EF-1 2 mg/kg/day, 4 weeks) was “significantly prevented both interstitial and perivascular fibrosis”, the “Perivascular fibrosis male in vivo WT with EF-1” value [3, 5] was 2.195 and 0.9604 and 0.7595 and 1.184 and 2.0179 and the “Total fibrosis male in vivo WT with EF-1” value [3, 5] was 1.541 and 0.4939 and 0.5555 and 0.9884 and 1.07. For the same compound, the “Perivascular fibrosis male in vivo WT with EF-1” value [3, 6] was 0.7074 and 0.782 and 0.418 and 0.8908 and the “Total fibrosis male in vivo WT with EF-1” value [3, 6] was 0.8052 and 0.5165 and 0.1613 and 0.2053.
For `Cc1sc2nc(SC(C)C(=O)NCc3ccc4c(c3)OCO4)n(-c3ccccc3)c(=O)c2c1C` (stereo not drawn) [NA-1], the “Perivascular fibrosis male in vivo WT with NA-1” value ([3]; AngII/NA-1, individual animals) was 1.271 and 2.289 and 2.187 and 2.2768, the “Total fibrosis male in vivo WT with NA-1” value ([3]; AngII/NA-1, individual animals) was 7.18 and 11.9815 and 8.108 and 8.95 and the “effect on AngII-induced interstitial and perivascular fibrosis (in words)” value ([3]; male wild type mice, NA-1 2 mg/kg/day) was “did not significantly prevent interstitial or perivascular AngII-induced fibrosis”.
